Data: patent US8603498B2, “Lipo-phosphated or lipo-sulphated compound, compositions comprising it and topical uses thereof” (Sederma, S.A.S., priority 2010, dated 2013)

Key:
loricrin = test: Production of loricrin in cultured human keratinocytes by immunolabelling; assay type: cell-based; conditions: for Loricrin Change (%): vs control
Description: (§1) Protocol: Human keratinocytes were cultivated up to confluence. The cells were then placed in contact/not contact with the solubilized Lipo-Phosphomalate for 21 days. At the end of this contact period, labelling common to both filaggrin and profilaggrin was carried out on cell layers using specific antibodies. Labelling intensity was analysed on photos (n=15 photos) and compared to that obtained for the negative control and for vitamin D3 at 10^−7M used as a positive differentiation control.
Loricrine is one of the key elements in the formation of the corneal envelope. It is attached to involucrin (see 1.1) by transglutaminase, which forms rigid, insoluble structures. The method described in 1.2. was used.

3T3-L1 cells = test: Lipid incorporation by 3T3-L1 cells (oil red, image analysis); assay type: cell-based
Description: 3T3-L1 cells are sowed and cultivated for 4 days (multiplication). Follow a differentiation phase (incubation with a classic differentiation mixture) and then a maturation phase (with a maturation mixture) in the presence or not of the Lipo-Phosphomalate at different concentrations. At the end of this period, cells were washed, fixed and coloured with oil red. The cell layers were photographed digitally and the red color is quantified by image analysis. The surface percentages of red oil, reported in the table below, were established compared to untreated control cells, and the test validated by comparison to pioglytazone (10 μM), positive control for stimulation of differentiation.

cholesterol = test: Cholesterol in keratinocytes by HPTLC; assay type: cell-based, human; conditions: 5 ppm, 7 days
Description: (§2) The same protocol was followed as before but a larger quantity of keratinocyes was used on this occasion because of the limits of detection of the apparatus. After 7 days, the layers were rinsed, lipids extracted using solvents before being deposited on a thin-layer chromatography plate using an automated device. After migration and detection, the bands were analysed and quantified based on a range of standard lipids deposited on the same plate.

melanocytes = test: Lipid production in melanocytes; assay type: cell-based
Source text: This lipid production by the Lipo-Phosphomalate was not observed in fibroblasts or melanocytes. It is therefore a specific effect related to the metabolism of keratinocyte during its differentiation.

caspase-14 = test: Production of caspase-14 in cultured human keratinocytes by immunolabelling; assay type: cell-based; conditions: for Caspase Change (%): vs control
hydroxylated ceramides = test: Hydroxylated ceramides in keratinocytes by HPTLC; assay type: cell-based, human; conditions: 5 ppm
Description: as §2
(§3) At the same time as the HPTLC cholesterol assay, an assay of hydroxylated and non-hydroxylated ceramides was carried out on the extracts.

matriptase = test: Production of matriptase in cultured human keratinocytes by immunolabelling; assay type: cell-based; conditions: for Matriptase Change (%): vs control
hyaluronic acid = test: Synthesis of hyaluronic acid by human keratinocytes (ELISA); assay type: cell-based; conditions: for hyaluronic acid ng/10^e6 cells: 3 days, supernatant
Description: Protocol: Human keratinocytes are humains were cultivated in MW24 plates for 24 h. Cells were contacted or not with the Lipo-Phosphomalate for 3 days. Culture surpernatants were taken and an assay of the quantity of hyaluronic acid was achieved. Retinoic acid was used as the positive control.

[1] = test system: non hydroxylated ceramides; test: Non hydroxylated ceramides in keratinocytes by HPTLC; assay type: cell-based, human; conditions: 5 ppm
Description: as §2, §3

filaggrin/profilaggrin = test: Filaggrin synthesis on human keratinocytes (immunofluorescent method); assay type: cell-based; conditions: for Filaggrin/profilaggrin (UFA/10^6 cell.): 21 days contact; for Filaggrin/profilaggrin Change (%): vs control
Description: as §1

[2] = 5 ppm, listed as Solubilised Lipo-Phosphomalate
[3] = 5 ppm, listed as solubilised Lipo-Phosphomalate

CCCCCCCCCCCCCCOC(=O)CC(OP(=O)(O)O)C(=O)O (stereo not shown) [Lipo-Phosphomalate, 2-phosphate-succinic-acid-4-tetradecyle ester]
Loricrin Change (%) (loricrin; 1.5 ppm): +131%; p < 0.01 | Loricrin (UFA/10^6 cell.) (loricrin; 5 ppm): 3.84 ± 1.19 UFA/10^6 cell. | Loricrin Change (%) (loricrin; 5 ppm): +426%; p < 0.01 | surface of red oil % Change/control (3T3-L1 cells; 10 ppm): +171%; p < 0.01 | surface of red oil % Change/control (3T3-L1 cells; 15 ppm): +294%; p < 0.01 | surface of red oil % Change/control (3T3-L1 cells; 20 ppm): +481%; p < 0.01 | HPTLC Cholesterol (pg/10^6 cell.) (cholesterol): 30.89 ± 7.20 pg/10^6 cell. | HPTLC Cholesterol % Change (cholesterol; vs control): +53%; p < 0.05 | lipid production (cholesterol, ceramides) (melanocytes): not observed | Caspase (UFA/10^6 cell.) (caspase-14; 1.5 ppm): 1.13 ± 0.44 UFA/10^6 cell. | Caspase Change (%) (caspase-14; 1.5 ppm): +121%; p < 0.01 | Caspase (UFA/10^6 cell.) (caspase-14; 5 ppm): 1.68 ± 0.64 UFA/10^6 cell. | Caspase Change (%) (caspase-14; [2]): +229%; p < 0.01 | Caspase Change (%) (caspase-14; [3]): +229% | Hydroxylated Ceramides (pg/10^5 cell.) (hydroxylated ceramides; 7 days): 10.50 ± 1.12 pg/10^5 cell. | Hydroxylated Ceramides Change (number of times) (hydroxylated ceramides; vs control): ×7.5 | Matriptase (UFA/10^6 cell.) (matriptase; 1.5 ppm): 2.27 ± 0.47 UFA/10^6 cell. | Matriptase Change (%) (matriptase; 1.5 ppm): +125%; p < 0.01 | Matriptase (UFA/10^6 cell.) (matriptase; 5 ppm): 4.08 ± 1.56 UFA/10^6 cell. | Matriptase Change (%) (matriptase; [2]): +304%; p < 0.01 | Matriptase Change (%) (matriptase; [3]): +304% | hyaluronic acid % Change/control (hyaluronic acid; 1.67 ppm): +16%; p < 0.01 | hyaluronic acid ng/10^e6 cells (hyaluronic acid; 1.67 ppm): 1015 +/− 46 ng/10^e6 cells | hyaluronic acid % Change/control (hyaluronic acid; 5 ppm): +57%; p < 0.01 | hyaluronic acid ng/10^e6 cells (hyaluronic acid; 5 ppm): 1374 +/− 50 ng/10^e6 cells | hyaluronic acid % Change/control (hyaluronic acid; 8.33 ppm): +69%; p < 0.01 | hyaluronic acid ng/10^e6 cells (hyaluronic acid; 8.33 ppm): 1480 +/− 51 ng/10^e6 cells | Non hydroxylated Ceramides (pg/10^6 cell.) ([1]; 7 days): 8.41 ± 1.30 pg/10^6 cell. | Non hydroxylated Ceramides % Change ([1]; vs control): +256%; p < 0.01 | Filaggrin/profilaggrin (UFA/10^6 cell.) (filaggrin/profilaggrin; 1.5 ppm): 3.04 ± 1.21 UFA/10^6 cell. | Filaggrin/profilaggrin Change (%) (filaggrin/profilaggrin; 1.5 ppm): +119%; p < 0.01 | Filaggrin/profilaggrin (UFA/10^6 cell.) (filaggrin/profilaggrin; 5 ppm): 5.00 ± 1.58 UFA/10^6 cell. | Filaggrin/profilaggrin Change (%) (filaggrin/profilaggrin; [2]): +259%; p < 0.01 | Filaggrin/profilaggrin Change (%) (filaggrin/profilaggrin; [3]): +259%
